Results: patent US11046694B2, “Compounds and methods for treating bacterial infections” (Entasis Therapeutics, Inc., priority 2018, dated 2021)
Converted amounts (≈) assume the structure as drawn. Structures can show the parent of a compound that is named as a salt.

Assays:
[1] = tested on: K. pneumoniae (ATCC700603); assay: MIC against K. pneumoniae; conditions: Klebsiella pneumoniae, ATCC700603, read-out: K. pneumoniae MIC (ATCC700603)
E. coli (ATCC25922) = assay: MIC against E. coli; conditions: Escherichia coli, ATCC25922, read-out: E. coli MIC (ATCC25922) (mg/L)
P. aeruginosa PBP3 = P. aeruginosa PBP3 (Pseudomonas aeruginosa, UniProt G3XD46); type: biochemical; conditions: P. aeruginosa PBP3 60 nM, BOCILLIN FL 30 nM, pH 7.0
Sequence of P. aeruginosa PBP3 (G3XD46 whole entry): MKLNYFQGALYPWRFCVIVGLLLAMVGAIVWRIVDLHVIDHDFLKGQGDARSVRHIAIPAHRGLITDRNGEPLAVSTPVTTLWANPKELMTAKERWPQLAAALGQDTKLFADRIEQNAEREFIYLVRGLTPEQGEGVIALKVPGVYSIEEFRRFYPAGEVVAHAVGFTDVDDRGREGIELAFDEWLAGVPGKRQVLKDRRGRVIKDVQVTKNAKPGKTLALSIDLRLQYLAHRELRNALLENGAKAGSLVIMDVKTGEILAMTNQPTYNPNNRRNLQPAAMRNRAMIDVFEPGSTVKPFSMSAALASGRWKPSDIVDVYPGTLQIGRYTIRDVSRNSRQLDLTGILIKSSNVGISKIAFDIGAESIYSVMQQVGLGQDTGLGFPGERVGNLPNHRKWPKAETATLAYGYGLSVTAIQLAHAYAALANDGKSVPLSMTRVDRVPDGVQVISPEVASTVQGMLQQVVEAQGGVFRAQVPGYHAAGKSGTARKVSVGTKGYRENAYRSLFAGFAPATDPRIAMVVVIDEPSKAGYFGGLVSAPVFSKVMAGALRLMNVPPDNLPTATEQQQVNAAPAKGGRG

P. aeruginosa WT (PAO1) = assay: MIC, CLSI broth microdilution, P. aeruginosa; type: cell-based; conditions: Pseudomonas aeruginosa, PAO1; CLSI broth microdilution; read-out: P. aeruginosa WT (PAO1) MIC
A. baumannii (ARC3495) = assay: MIC against A. baumannii; conditions: Acinetobacter baumannii, read-out: A. baumannii MIC (ARC3495) (mg/L)
P. aeruginosa PBP1a = P. aeruginosa PBP1a (Pseudomonas aeruginosa, UniProt Q07806); type: biochemical; conditions: P. aeruginosa PBP1a 60 nM, BOCILLIN FL 30 nM, pH 7.0
Sequence of P. aeruginosa PBP1a (Q07806 whole entry): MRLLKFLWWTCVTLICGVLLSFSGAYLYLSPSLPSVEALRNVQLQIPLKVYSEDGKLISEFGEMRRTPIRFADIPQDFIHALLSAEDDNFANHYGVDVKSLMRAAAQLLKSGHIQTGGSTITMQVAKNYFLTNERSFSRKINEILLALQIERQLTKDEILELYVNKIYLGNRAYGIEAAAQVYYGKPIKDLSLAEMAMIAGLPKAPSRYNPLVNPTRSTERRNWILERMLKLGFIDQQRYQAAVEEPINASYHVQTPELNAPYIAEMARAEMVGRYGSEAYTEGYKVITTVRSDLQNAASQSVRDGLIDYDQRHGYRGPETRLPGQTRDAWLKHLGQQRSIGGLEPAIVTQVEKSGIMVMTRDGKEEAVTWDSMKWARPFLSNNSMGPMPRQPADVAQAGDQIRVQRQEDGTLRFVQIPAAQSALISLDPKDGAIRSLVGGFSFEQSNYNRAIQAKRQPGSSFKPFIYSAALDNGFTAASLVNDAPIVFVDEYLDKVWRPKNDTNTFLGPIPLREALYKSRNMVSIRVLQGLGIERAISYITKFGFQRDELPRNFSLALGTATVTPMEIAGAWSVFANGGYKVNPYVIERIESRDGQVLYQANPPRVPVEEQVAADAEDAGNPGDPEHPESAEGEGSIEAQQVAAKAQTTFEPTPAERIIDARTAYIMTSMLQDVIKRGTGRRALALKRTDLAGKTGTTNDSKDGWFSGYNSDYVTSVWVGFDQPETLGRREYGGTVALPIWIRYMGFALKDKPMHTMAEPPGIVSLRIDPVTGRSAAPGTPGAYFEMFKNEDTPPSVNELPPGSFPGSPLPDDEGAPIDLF

Row | SMILES | MIC [1] [µg/mL] | MIC (E. coli (ATCC25922)) [mg/L] | PBP3 acylation rate, k(on) (M^−1 · s^−1) (P. aeruginosa PBP3) | MIC (P. aeruginosa WT (PAO1)) [µg/mL] | MIC (A. baumannii (ARC3495)) [mg/L] | PBP1a acylation rate, k(on) (M^−1 · s^−1) (P. aeruginosa PBP1a)
1 | CN/C(=N\OC(=O)NCCC(N)=O)[C@@H]1c2c(cnn2C)[C@@H]2CN1C(=O)N2OS(=O)(=O)O (racemic) [Example 16] | > 16 | 8 to 16 (≈ 17.4 to 34.8 µM) | *** (*** represents a k(on) > 10,000 M^−1 · s^−1) | 8 to 16 (≈ 17.4 to 34.8 µM) | > 16 | ** (** represents a k(on) of 100 to 10,000 M^−1 · s^−1)
2 | CN/C(=N\O)[C@@H]1c2c(cnn2C/C=N/OCCN)[C@@H]2CN1C(=O)N2OS(=O)(=O)O (racemic) [Example 49, 1-((E)-2-((2-aminoethoxy)imino)ethyl)-8-((Z)—N′-hydroxy-N-methylcarbamimidoyl)-6-oxo-4,8-dihydro-1H-4,7-methanopyrazolo[3,4-e][1,3]diazepin-5(6H)-yl hydrogen sulfate] | 8 to 16 | 8 to 16 | *** (*** represents a k(on) > 10,000 M^−1 · s^−1) | < 8 | 8 to 16 | * (* represents a k(on) < 100 M^−1 · s^−1)
3 | CN/C(=N\OC(=O)NOC)[C@@H]1c2c(cnn2C)[C@@H]2CN1C(=O)N2OS(=O)(=O)O (racemic) [Example 33] | > 16 | 8 to 16 (≈ 19.1 to 38.2 µM) | *** (*** represents a k(on) > 10,000 M^−1 · s^−1) | 8 to 16 (≈ 19.1 to 38.2 µM) | 8 to 16 (≈ 19.1 to 38.2 µM) | ** (** represents a k(on) of 100 to 10,000 M^−1 · s^−1)
4 | CN/C(=N\OC(=O)NCC(N)=O)[C@@H]1c2c(cnn2C)[C@@H]2CN1C(=O)N2OS(=O)(=O)O (racemic) [Example 23] | 8 to 16 (≈ 17.9 to 35.8 µM) | 8 to 16 (≈ 17.9 to 35.8 µM) | *** (*** represents a k(on) > 10,000 M^−1 · s^−1) | 8 to 16 (≈ 17.9 to 35.8 µM) | > 16 | ** (** represents a k(on) of 100 to 10,000 M^−1 · s^−1)
5 | CN/C(=N\OC(=O)NO)[C@@H]1c2c(cnn2C)[C@@H]2CN1C(=O)N2OS(=O)(=O)O (racemic) [Example 17] | 8 to 16 (≈ 19.7 to 39.5 µM) | 8 to 16 (≈ 19.7 to 39.5 µM) | *** (*** represents a k(on) > 10,000 M^−1 · s^−1) | 8 to 16 (≈ 19.7 to 39.5 µM) | > 16 | ** (** represents a k(on) of 100 to 10,000 M^−1 · s^−1)
6 | CN1C(=O)CON=C1[C@@H]1c2c(cnn2C)[C@@H]2CN1C(=O)N2OS(=O)(=O)O [Example 64, ((4R,8S)-1-methyl-8-(4-methyl-5-oxo-5,6-dihydro-4H-1,2,4-oxadiazin-3-yl)-6-oxo-4,8-dihydro-1H-4,7-methanopyrazolo[3,4-e][1,3]diazepin-5(6H)-yl) hydrogen sulfate] | > 16 | < 8 | ** (** represents a k(on) of 100 to 10,000 M^−1 · s^−1) | > 16 | > 16 | ** (** represents a k(on) of 100 to 10,000 M^−1 · s^−1)
7 | CN/C(=N\OC(=O)N[C@H]1CCNC1)[C@@H]1c2c(cnn2C)[C@@H]2CN1C(=O)N2OS(=O)(=O)O (racemic) [Example 24] | 8 to 16 (≈ 17.4 to 34.9 µM) | 8 to 16 (≈ 17.4 to 34.9 µM) | *** (*** represents a k(on) > 10,000 M^−1 · s^−1) | < 8 | 8 to 16 (≈ 17.4 to 34.9 µM) | ** (** represents a k(on) of 100 to 10,000 M^−1 · s^−1)
8 | CN/C(=N\OC(=O)NC(C)(C)C(=O)O)[C@@H]1c2c(cnn2C)[C@@H]2CN1C(=O)N2OS(=O)(=O)O (racemic) [Example 34] | > 16 | 8 to 16 (≈ 16.8 to 33.7 µM) | *** (*** represents a k(on) > 10,000 M^−1 · s^−1) | 8 to 16 (≈ 16.8 to 33.7 µM) | > 16 | ** (** represents a k(on) of 100 to 10,000 M^−1 · s^−1)
9 | CN/C(=N\OC(C)=O)[C@@H]1c2c(cnn2C)[C@@H]2CN1C(=O)N2OS(=O)(=O)O [Example 69, pyridium (4R,8S)-8-((Z)—N′-acetoxy-N-methylcarbamimidoyl)-1-methyl-6-oxo-4,8-dihydro-1H-4,7-methanopyrazolo[3,4-e][1,3]diazepin-5(6H)-hydrogen sulfate] | 8 to 16 | 8 to 16 | *** (*** represents a k(on) > 10,000 M^−1 · s^−1) | > 16 | > 16 | ** (** represents a k(on) of 100 to 10,000 M^−1 · s^−1)
10 | CN/C(=N\OC(=O)N(C)C)[C@@H]1c2c(cnn2C)[C@@H]2CN1C(=O)N2OS(=O)(=O)O (racemic) [Example 21] | > 16 | < 8 | *** (*** represents a k(on) > 10,000 M^−1 · s^−1) | > 16 | > 16 | ** (** represents a k(on) of 100 to 10,000 M^−1 · s^−1)
11 | CN/C(=N\OC(=O)NC1CNC1)[C@@H]1c2c(cnn2C)[C@@H]2CN1C(=O)N2OS(=O)(=O)O (racemic) [Example 26] | < 8 | < 8 | *** (*** represents a k(on) > 10,000 M^−1 · s^−1) | < 8 | < 8 | ** (** represents a k(on) of 100 to 10,000 M^−1 · s^−1)
12 | CN/C(=N\OCC(=O)NCCCC[C@H](N)C(=O)O)[C@@H]1c2c(cnn2C)[C@@H]2CN1C(=O)N2OS(=O)(=O)O (racemic) [Example 60] | > 16 | < 8 | *** (*** represents a k(on) > 10,000 M^−1 · s^−1) | 8 to 16 (≈ 15 to 30 µM) | > 16 | * (* represents a k(on) < 100 M^−1 · s^−1)
13 | CN1C(=O)C(C)(C)ON=C1[C@@H]1c2c(cnn2C)[C@@H]2CN1C(=O)N2OS(=O)(=O)O [Example 65] | > 16 | < 8 | ** (** represents a k(on) of 100 to 10,000 M^−1 · s^−1) | > 16 | > 16 | ** (** represents a k(on) of 100 to 10,000 M^−1 · s^−1)
14 | CN/C(=N\OC(=O)NCCCN)[C@@H]1c2c(cnn2C)[C@@H]2CN1C(=O)N2OS(=O)(=O)O (racemic) [Example 25] | > 16 | 8 to 16 (≈ 17.9 to 35.8 µM) | *** (*** represents a k(on) > 10,000 M^−1 · s^−1) | < 8 | 8 to 16 (≈ 17.9 to 35.8 µM) | ** (** represents a k(on) of 100 to 10,000 M^−1 · s^−1)
15 | CN/C(=N\OCC(=O)NC1CNC1)[C@@H]1c2c(cnn2C)[C@@H]2CN1C(=O)N2OS(=O)(=O)O (racemic) [Example 61] | > 16 | < 8 | ** (** represents a k(on) of 100 to 10,000 M^−1 · s^−1) | 8 to 16 (≈ 17.4 to 34.9 µM) | > 16 | * (* represents a k(on) < 100 M^−1 · s^−1)
16 | CN/C(=N\OC(=O)NCCCCNC(=O)C(F)(F)F)[C@@H]1c2c(cnn2C)[C@@H]2CN1C(=O)N2OS(=O)(=O)O [Example 45, (4R,8S)-1-methyl-8-((Z)—N-methyl-N′-(((4-(2,2,2-trifluoroacetamido)butyl)carbamoyl)oxy)carbamimidoyl)-6-oxo-4,8-dihydro-1H-4,7-methanopyrazolo[3,4-e][1,3]diazepin-5(6H)-yl hydrogen sulfate] | > 16 | < 8 | *** (*** represents a k(on) > 10,000 M^−1 · s^−1) | > 16 | > 16 | ** (** represents a k(on) of 100 to 10,000 M^−1 · s^−1)
17 | CN/C(=N\OCC(N)=O)[C@@H]1c2c(cnn2C)[C@@H]2CN1C(=O)N2OS(=O)(=O)O [Example 57, pyridium (4R,8S)-8-((Z)—N′-(2-amino-2-oxoethoxy)-N-methylcarbamimidoyl)-1-methyl-6-oxo-4,8-dihydro-1H-4,7-methanopyrazolo[3,4-e][1,3]diazepin-5(6H)-yl hydrogen sulfate] | 8 to 16 | 8 to 16 | *** (*** represents a k(on) > 10,000 M^−1 · s^−1) | < 8 | 8 to 16 | ** (** represents a k(on) of 100 to 10,000 M^−1 · s^−1)
